How the values were obtained:
Assay type in all cases: biochemical
PKC theta kinase = PKC theta kinase (Homo sapiens, UniProt Q04759); assay: PKC theta kinase inhibition, coupled-enzyme (NADH absorbance) assay, Ki; details: 240 μM ATP, 18 nM PKC theta kinase, 30° C.
Procedure, shortened: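 Coupled-enzyme kinase assay following NADH absorbance at 340 nm, in 100 mM HEPES pH 7.5, 10 mM MgCl2, 25 mM NaCl, 0.1 mM EDTA, 0.01% Brij. Compound in DMSO preincubated with enzyme 10 min at 30 °C. Ki from initial rates by non-linear regression.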

PKC delta kinase = PKC delta kinase (Homo sapiens, UniProt Q05655); assay: PKC delta kinase inhibition, coupled-enzyme (NADH absorbance) assay, Ki; details: 150 μM ATP, 46 nM PKC delta kinase, 30° C.; read-out: Ki PKC delta
Sequence of PKC delta kinase (Q05655 whole entry): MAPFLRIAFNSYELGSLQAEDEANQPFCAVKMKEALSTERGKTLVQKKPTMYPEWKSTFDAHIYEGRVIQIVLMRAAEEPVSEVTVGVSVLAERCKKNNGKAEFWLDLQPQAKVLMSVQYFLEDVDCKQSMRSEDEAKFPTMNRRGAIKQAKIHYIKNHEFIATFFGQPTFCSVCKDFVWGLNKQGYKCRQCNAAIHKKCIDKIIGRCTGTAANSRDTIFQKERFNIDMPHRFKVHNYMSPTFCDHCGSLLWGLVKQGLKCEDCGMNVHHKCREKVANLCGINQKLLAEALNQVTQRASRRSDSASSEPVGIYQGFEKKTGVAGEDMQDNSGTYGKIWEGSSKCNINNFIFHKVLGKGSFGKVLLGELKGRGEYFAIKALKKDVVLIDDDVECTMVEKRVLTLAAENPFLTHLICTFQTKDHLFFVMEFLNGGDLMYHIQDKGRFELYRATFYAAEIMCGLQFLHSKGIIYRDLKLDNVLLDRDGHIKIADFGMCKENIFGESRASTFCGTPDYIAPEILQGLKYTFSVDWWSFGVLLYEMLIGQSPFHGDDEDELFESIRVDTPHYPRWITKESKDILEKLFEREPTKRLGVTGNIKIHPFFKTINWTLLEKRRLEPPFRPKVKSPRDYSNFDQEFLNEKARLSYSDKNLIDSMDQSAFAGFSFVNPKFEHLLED
Procedure, shortened: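 PKC delta in 100 mM HEPES pH 7.5, 10 mM MgCl2, 25 mM NaCl, 0.1 mM EDTA, 0.01% Brij, equilibrated 10 min at 30° C with compound from DMSO stock. Started with ATP at 150 μM final; NADH-coupled absorbance at 340 nm followed 15 min at 30° C. Ki from initial rates by non-linear regression.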

PKC alpha kinase = PKC alpha kinase (Homo sapiens, UniProt P17252); assay: PKC alpha kinase inhibition, coupled-enzyme (NADH absorbance) assay, Ki; details: 130 μM ATP, 4.5 nM PKC alpha kinase, 30° C.
Procedure, shortened: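 Enzyme in 100 mM HEPES pH 7.5, 10 mM MgCl2, 100 μM CaCl2, 0.01% Brij, preincubated with compound 10 min at 30 °C. Reaction started with 130 μM ATP (final); NADH consumption followed at 340 nm for 15 min at 30 °C. Ki fitted by non-linear regression of initial rates.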

Sequence of PKC theta kinase (Q04759 whole entry): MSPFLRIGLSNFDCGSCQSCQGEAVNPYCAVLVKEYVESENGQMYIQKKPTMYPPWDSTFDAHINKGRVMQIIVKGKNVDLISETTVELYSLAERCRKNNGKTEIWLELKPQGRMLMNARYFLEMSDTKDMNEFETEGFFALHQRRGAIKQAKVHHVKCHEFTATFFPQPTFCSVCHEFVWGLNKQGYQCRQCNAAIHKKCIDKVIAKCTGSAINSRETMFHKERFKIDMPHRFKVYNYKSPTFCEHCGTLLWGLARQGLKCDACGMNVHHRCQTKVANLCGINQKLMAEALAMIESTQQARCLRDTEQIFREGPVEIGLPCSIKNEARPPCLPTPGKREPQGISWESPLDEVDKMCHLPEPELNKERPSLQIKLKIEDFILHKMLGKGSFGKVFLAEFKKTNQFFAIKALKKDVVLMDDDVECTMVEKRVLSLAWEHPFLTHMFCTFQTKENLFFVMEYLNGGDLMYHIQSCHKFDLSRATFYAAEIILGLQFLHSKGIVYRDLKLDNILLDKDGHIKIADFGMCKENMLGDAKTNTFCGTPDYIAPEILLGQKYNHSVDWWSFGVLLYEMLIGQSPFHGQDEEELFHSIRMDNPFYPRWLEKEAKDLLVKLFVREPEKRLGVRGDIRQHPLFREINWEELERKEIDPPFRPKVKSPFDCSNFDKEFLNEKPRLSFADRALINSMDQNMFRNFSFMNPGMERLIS

Row | Ki (PKC theta kinase) [nM] | Ki (PKC delta kinase) [nM] | Ki (PKC alpha kinase) [nM] | Compound
1 | > 700 | > 1250 | > 1250 | Fc1ccc(N2CCc3[nH]ncc3C2)nc1-c1n[nH]c2ncccc12 [Compound 298]
2 | < 50 | < 2800 | > 1250 | CC(C)CC(N)C1CCCN(c2ccc(F)c(-c3n[nH]c4ncccc34)n2)C1 (stereo not drawn) [Compound 299]
3 | < 500 | > 1250 | > 1250 | NC(c1ccccc1)C1CCCN(c2ccc(F)c(-c3n[nH]c4ncccc34)n2)C1 (stereo not drawn) [Compound 301]
4 | > 700 | > 1250 | > 1250 | NC(=O)C1CCCN(c2ccc(F)c(-c3n[nH]c4ncccc34)n2)C1 (stereo not drawn) [Compound 302]
5 | > 700 | > 1250 | > 1250 | CC(=O)NCC1CCCN(c2ccc(F)c(-c3n[nH]c4ncccc34)n2)C1 (stereo not drawn) [Compound 303]
6 | > 700 | > 1250 | > 1250 | NCCC1CCCN(c2ccc(F)c(-c3n[nH]c4ncccc34)n2)C1 (stereo not drawn) [Compound 304]
7 | > 700 | > 1250 | > 1250 | CN(C)CC1CCCN(c2ccc(F)c(-c3n[nH]c4ncccc34)n2)C1 (stereo not drawn) [Compound 305]
8 | > 700 | > 1250 | > 1250 | NCc1cccc(-c2ccc(C(F)(F)F)c(-c3n[nH]c4ncccc34)n2)c1 [Compound 306]
9 | < 2800 | > 1250 | > 1250 | Fc1ccc(N2CC3CCNCC3C2)nc1-c1n[nH]c2ncccc12 (stereo not drawn) [Compound 309]
10 | < 500 | < 500 | < 2800 | CC(C)(N)C1CCCN(c2ccc(F)c(-c3n[nH]c4ncccc34)n2)C1 (stereo not drawn) [Compound 310]
11 | > 700 | > 1250 | > 1250 | Fc1ccc(N2CCC3(CCNC3)C2)nc1-c1n[nH]c2ncccc12 (stereo not drawn) [Compound 312]
12 | < 500 | > 1250 | > 1250 | CC1CN(c2ccc(F)c(-c3n[nH]c4ncccc34)n2)CC1CN (stereo not drawn) [Compound 313]
13 | < 500 | > 1250 | > 1250 | Fc1ccc(N2CCCC(C3CCCN3)C2)nc1-c1n[nH]c2ncccc12 (stereo not drawn) [Compound 314]
14 | < 500 | > 1250 | > 1250 | CC1(N)CCCN(c2ccc(F)c(-c3n[nH]c4ncccc34)n2)C1 (stereo not drawn) [Compound 316]
15 | < 50 | > 1250 | > 1250 | CC(C)(C)CC(N)C1CCCN(c2ccc(F)c(-c3n[nH]c4ncccc34)n2)C1 (stereo not drawn) [Compound 317]
16 | > 700 | > 1250 | > 1250 | CC1(N)CCCN(c2ccc(C(F)(F)F)c(-c3n[nH]c4ncccc34)n2)C1 (stereo not drawn) [Compound 319]
17 | > 700 | > 1250 | > 1250 | FC(F)(F)c1ccc(N2CCC(N3CCCCC3)CC2)nc1-c1n[nH]c2ncccc12 [Compound 320]
18 | > 700 | > 1250 | > 1250 | OCC1CCN(c2ccc(C(F)(F)F)c(-c3n[nH]c4ncccc34)n2)CC1 [Compound 321]
19 | < 500 | > 1250 | > 1250 | CC(O)(c1ccccc1)C1CN(c2ccc(F)c(-c3n[nH]c4ncccc34)n2)CCN1 (stereo not drawn) [Compound 322]
20 | < 50 | < 50 | < 2800 | NC1(C2CCCN(c3ccc(F)c(-c4n[nH]c5ncccc45)n3)C2)CCC1 (stereo not drawn) [Compound 324]
21 | < 500 | > 1250 | > 1250 | CC(C)C[C@H]1CN(c2ccc(F)c(-c3n[nH]c4ncccc34)n2)CC[C@@H]1O [Compound 325]
22 | < 500 | > 1250 | > 1250 | NCC1CCCN(c2ccc(F)c(-c3n[nH]c4ncccc34)n2)C1 (stereo not drawn) [Compound 327]
23 | < 1 | < 10 | < 500 | CC(C)C(C)(O)C1CN(c2nc(-c3n[nH]c4ncccc34)ccc2F)CCN1 (stereo not drawn) [Compound 328]
24 | < 1 | < 50 | < 2800 | CC(C)C(C)(O)C1CN(c2nc(-c3n[nH]c4ncccc34)ccc2F)CCN1 (stereo not drawn) [Compound 329]
25 | > 700 | > 1250 | > 1250 | CC1CN(c2ccc(C(F)(F)F)c(-c3n[nH]c4ncccc34)n2)CC1CN (stereo not drawn) [Compound 332]

Row | Ki (PKC theta kinase) [nM] | Ki (PKC delta kinase) [nM] | Ki (PKC alpha kinase) [nM] | Compound
26 | > 700 | > 1250 | > 1250 | CC(C)CC1CCCN(c2ccc(C(F)(F)F)c(-c3n[nH]c4ncccc34)n2)C1 (stereo not drawn) [Compound 333]
27 | > 700 | > 1250 | > 1250 | CC(C)CC1CCCN(c2ccc(F)c(-c3n[nH]c4ncccc34)n2)C1 (stereo not drawn) [Compound 334]
28 | < 2800 | < 2800 | < 2800 | NCc1cccc(-c2cccc(-c3n[nH]c4ncccc34)n2)c1 [Compound 335]
29 | > 700 | > 1250 | > 1250 | NCC1CN(c2ccc(C(F)(F)F)c(-c3n[nH]c4ncccc34)n2)CCO1 (stereo not drawn) [Compound 336]
30 | < 500 | > 1250 | > 1250 | CC(C)CC1CN(c2ccc(C(F)(F)F)c(-c3n[nH]c4ncccc34)n2)CCC1C#N (stereo not drawn) [Compound 337]
31 | < 500 | > 1250 | > 1250 | CCC[C@H]1CN(c2ccc(F)c(-c3n[nH]c4ncccc34)n2)C[C@H]1N [Compound 338]
32 | < 500 | > 1250 | > 1250 | CCC[C@H]1CN(c2ccc(F)c(-c3n[nH]c4ncccc34)n2)C[C@@H]1N [Compound 339]
33 | > 700 | > 1250 | > 1250 | CCC[C@H]1CN(c2ccc(C(F)(F)F)c(-c3n[nH]c4ncccc34)n2)C[C@H]1N [Compound 340]
34 | > 700 | > 1250 | > 1250 | CCC[C@H]1CN(c2ccc(C(F)(F)F)c(-c3n[nH]c4ncccc34)n2)C[C@@H]1N [Compound 341]
35 | < 500 | > 1250 | > 1250 | CC(C)C(C)(O)C1CN(c2cc(C(F)(F)F)cc(-c3n[nH]c4ncccc34)n2)CCN1 (stereo not drawn) [Compound 342]
36 | < 50 | < 500 | > 1250 | NC1(C2CCCN(c3ccc(F)c(-c4n[nH]c5ncccc45)n3)C2)CCCC1 (stereo not drawn) [Compound 344]
37 | < 50 | < 500 | > 1250 | CC(C)(F)C(N)C1CCCN(c2ccc(F)c(-c3n[nH]c4ncccc34)n2)C1 (stereo not drawn) [Compound 345]
38 | < 50 | < 2800 | > 1250 | CC(C)C(N)C1CN(c2ccc(F)c(-c3n[nH]c4ncccc34)n2)CCO1 (stereo not drawn) [Compound 346]
39 | < 500 | > 1250 | > 1250 | CC(C)C(N)C1CN(c2ccc(C(F)(F)F)c(-c3n[nH]c4ncccc34)n2)CCO1 (stereo not drawn) [Compound 348]
40 | < 50 | > 1250 | > 1250 | CC(C)CC1CN(c2ccc(C(F)(F)F)c(-c3n[nH]c4ncccc34)n2)CCC1CN (stereo not drawn) [Compound 350]
41 | < 50 | < 2800 | > 1250 | CC(C)CC1(CN)CCCN(c2ccc(F)c(-c3n[nH]c4ncccc34)n2)C1 (stereo not drawn) [Compound 351]
42 | < 500 | < 2800 | > 1250 | CC(C)CC1(CN)CCCN(c2ccc(C(F)(F)F)c(-c3n[nH]c4ncccc34)n2)C1 (stereo not drawn) [Compound 352]
43 | > 700 | > 1250 | > 1250 | NC[C@@H]1CCN(c2ccc(C(F)(F)F)c(-c3n[nH]c4ncccc34)n2)C1 [Compound 353]
44 | > 700 | > 1250 | > 1250 | NC[C@H]1CCN(c2ccc(C(F)(F)F)c(-c3n[nH]c4ncccc34)n2)C1 [Compound 354]
45 | > 700 | > 1250 | > 1250 | NC[C@@H]1CCCN1c1ccc(F)c(-c2n[nH]c3ncccc23)n1 [Compound 355]
46 | > 700 | > 1250 | > 1250 | NC[C@@H]1CCCN1c1ccc(C(F)(F)F)c(-c2n[nH]c3ncccc23)n1 [Compound 356]
47 | < 500 | > 1250 | > 1250 | NC[C@@H]1CCN(c2ccc(F)c(-c3n[nH]c4ncccc34)n2)C1 [Compound 357]
48 | > 700 | > 1250 | > 1250 | FC(F)(F)c1ccc(N2CCC(Nc3ccccc3)CC2)nc1-c1n[nH]c2ncccc12 [Compound 358]
49 | > 700 | > 1250 | > 1250 | CNC1CCN(c2ccc(C(F)(F)F)c(-c3n[nH]c4ncccc34)n2)CC1 [Compound 359]
50 | < 500 | < 2800 | > 1250 | CC(C)(N)C1CCN(c2ccc(F)c(-c3n[nH]c4ncccc34)n2)C1 (stereo not drawn) [Compound 360]

Row | Compound | Ki (PKC theta kinase) [nM] | Ki (PKC delta kinase) [nM] | Ki (PKC alpha kinase) [nM]
51 | CC(C)(C)C(N)C1CCCN(c2ccc(F)c(-c3n[nH]c4ncccc34)n2)C1 (stereo not drawn) [Compound 307] | < 1 | < 50 | < 500
52 | CC(C)(C)C(N)C1CCCN(c2ccc(F)c(-c3n[nH]c4ncccc34)n2)C1 (stereo not drawn) [Compound 308] | < 50 | < 2800 | > 1250
53 | CC(C)(C)C(N)C1CCCN(c2ccc(F)c(-c3n[nH]c4ncccc34)n2)C1 (stereo not drawn) [Compound 330] | < 1 | < 10 | < 500
54 | CC(C)(C)C(N)C1CCCN(c2ccc(F)c(-c3n[nH]c4ncccc34)n2)C1 (stereo not drawn) [Compound 331] | < 500 | < 2800 | > 1250
